Test results published in patent publication US8822513B2, “Compounds for treatment of cancer” (GTX, Inc., priority 2010, dated 2014).
Like-named read-outs stand apart in the source and are kept apart here.

How the values were obtained:
[1] = tested on: tubulin (colchicine, vinblastine, paclitaxel binding sites); assay: MS competitive binding assay
Excerpt: Each reaction was run in triplicate.

[2] = Rotarod test (in vivo neurotoxicity); parameters: species or system mouse; conditions: ICR mice; 1h 5 or 15 mg/kg, vinblastine 0.5 mg/kg, i.p. daily
Description: ICR mice received training three times a day for two days to enable them to stay on the rotating rod for >120 seconds at 12 rpm. Mice were then randomized by the length of time that they could stay on the rotating rod and divided into 7-8 mice per group. […] The rotarod test was performed twice a week. […] The rod speed was increased from […] to 40 rpm over a period of 5 min. Performance was measured as the length of time that a mouse could stay on the rotating rod.

B16-F1 melanoma tumors = assay: In vivo efficacy, B16-F1 melanoma in C57/BL mice; parameters: species or system mouse; conditions: 60 mg/kg i.p. daily, 14 days
Description: Female C57/BL mice, age 4-6 weeks, were purchased from Harlan Laboratories (Harlan Laboratories Inc., Indianapolis, Ind.). The animal housing met the Association for Assessment and Accreditation and Laboratory Animal Care specifications. All of the procedures were conducted in accordance with guidelines of our Institutional Animal Care and Use Committee.
Tumor volume was expressed in cubic millimeters.

A375 melanoma cells = assay: SRB cytotoxicity assay, A375; type: cell-based, human; conditions: Table 12; 48 h; read-out: IC50 ± SEM A375
B16-F1 melanoma cells = assay: SRB cytotoxicity assay, B16-F1; type: cell-based, mouse
WM-164 melanoma cells = assay: SRB cytotoxicity assay, WM-164; type: cell-based, human; conditions: Table 12; 48 h; read-out: IC50 ± SEM WM164
[3] = ICR mice, 4 consecutive days i.p.
Bovine brain tubulin = assay: In vitro tubulin polymerization assay (bovine brain tubulin); type: biochemical
Description: The spectrophotometer was maintained at 37° C. for tubulin polymerization.

A375 melanoma xenografts = assay: In vivo efficacy, A375 melanoma xenograft in nude mice (SMART compounds); parameters: species or system mouse; conditions: 15 mg/kg i.p.
[4] = tested on: prostate cancer cell lines (LNCaP, PC-3, DU-145, PPC-1); assay: SRB cytotoxicity, prostate cancer cell lines (panel statements); conditions: Homo sapiens, read-out: IC50 against prostate cancer cells
[5] = Pharmacokinetic study in ICR mice; conditions: 15 mg/kg i.v.
[6] = Pharmacokinetic study in Sprague-Dawley rats; conditions: rat
[7] = tested on: three melanoma cell lines and four human prostate cancer cell lines; assay: SRB cytotoxicity, melanoma and prostate cancer cell lines (ranges and averages over the panel); type: cell-based; conditions: Homo sapiens; text on Tables 2, 3, 12, 21; read-out: IC50 (range over cell lines)
NCI/ADR-RES cells = assay: SRB cytotoxicity assay, NCI/ADR-RES (P-gp over-expressing); type: cell-based; conditions: Homo sapiens
[8] = Aqueous solubility, Multiscreen Solubility Filter Plate, PBS pH 7.4; type: physicochemical; conditions: HCl salt, vs 1h
PC-3 xenografts = assay: In vivo efficacy, PC-3 prostate tumor xenograft in nude mice; conditions: 50 mg/kg i.p.
PC-3 cells [9] = assay: Apoptosis detection by ELISA (cytoplasmic DNA-histone complexes), PC-3; type: cell-based, human; conditions: PC-3 and A375 cells, 24 h
Excerpt: The levels of DNA-histone complexes were used to represent cell apoptosis.
Quantification of the enrichment of mono- and oligonucleosomes in the cytoplasm was used to determine the ability of the compounds to induce apoptosis (cell death detection ELISA PLUS, Roche, Germany) following the manufacturer's instructions.

PC-3 cells [10] = tested on: PC-3 cells
Excerpt: (§1) Cells were stained with SRB solution.
Cells were stained with sulphorhodamine B (SRB) solution.

PPC-1 cells = tested on: PPC-1 cells
Excerpt: as §1

PC-3/TxR cells [11] = assay: SRB cytotoxicity assay, paclitaxel-resistant PC-3/TxR; conditions: Table 15; data in parentheses; IC50 values in PC-3 and PC-3/TxR compared
PC-3/TxR cells [12] = tested on: PC-3/TxR cells
[13] = Metabolic stability in human liver microsomes; conditions: for Half life in Human liver microsome: Table 20
[14] = Metabolic stability in dog liver microsomes; type: in vitro ADME; conditions: Table 20
[15] = Metabolic stability in rat liver microsomes; type: in vitro ADME; conditions: Table 20
[16] = Metabolic stability in mouse liver microsomes; type: in vitro ADME; conditions: Table 20
[17] = Metabolic stability in monkey liver microsomes; type: in vitro ADME; conditions: Table 20
DU 145 cells = assay: SRB cytotoxicity assay, DU 145; type: cell-based, human; conditions: Table 12; 96 h; read-out: IC50 ± SEM Du 145
Excerpt: as §1

LNCaP cells = assay: SRB cytotoxicity assay, LNCaP; type: cell-based, human; conditions: Table 12; 96 h; read-out: IC50 ± SEM LNCaP
Excerpt: as §1

[18] = Table 12, 48 h, read-out: IC50 ± SEM B16-F1

## CC[C@]1(O)C[C@@H]2CN(CCc3c([nH]c4ccccc34)[C@@](C(=O)OC)(c3cc4c(cc3OC)N(C)[C@H]3[C@@](O)(C(=O)OC)[C@H](OC(C)=O)[C@]5(CC)C=CCN6CC[C@]43[C@@H]65)C2)C1 [Vinblastine, vinblastine, reference compound]
[1]
  competition with colchicine-tubulin binding: did not inhibit the colchicine-tubulin binding
[2]
  time on the rotating rod vs vehicle group: gradually reduced the time

## CN(C)/N=N/c1[nH]cnc1C(N)=O [DTIC]
B16-F1 melanoma tumors
  tumor volume reduction: 51%

## O=C(c1cc(O)c(O)c(O)c1)c1c[nH]c(-c2ccc(O)c(O)c2)n1 [13ha]
A375 melanoma cells
  IC50: > 10000 nM
B16-F1 melanoma cells; [18]
  IC50: > 10000 nM
WM-164 melanoma cells
  IC50: > 10000 nM

## COc1cc(C(=O)c2csc(-c3ccc(F)cc3)n2)cc(OC)c1OC [2k]
[3]
  dose not causing greater than 10% loss of body weight: ≤ 15 mg/kg
Bovine brain tubulin; 10 μM (Example 22)
  inhibition of tubulin polymerization: 90%
A375 melanoma xenografts
  % T/C: 29%

## COc1cc(C(=O)c2cccc(-c3ccccc3)n2)cc(OC)c1OC [1c, (6-Phenylpyridin-2-yl)(3,4,5-trimethoxyphenyl)methanone]
[4]
  IC50: 12 to 35 nM

## COc1cc(C(=O)c2csc(-c3ccc(F)cc3)n2)cc(OC)c1OC [SMART-F]
[5]; mice
  AUC: 2100 ng·h/mL
A375 melanoma xenografts; Melanoma (A375) xenograft
  T-C: 11 days

## COc1cc(C(=O)c2csc(Nc3ccc(F)cc3)n2)cc(OC)c1OC.Cl [5Hc, (2-(p-Fluorophenylamino)thiazol-4-yl)(3,4,5-trimethoxyphenyl)methanone hydrochloride salt]
[6]
  increased exposure (AUC) by the oral route compared to 1h: more than 4.3 fold

## O=C(c1ccc2[nH]ccc2c1)c1csc(-c2cc3ccccc3[nH]2)n1 [compound 21, (2-(1H-indol-2-yl)thiazol-4-yl)(1H-indol-5-yl)methanone]
[5]; ICR mice
  times higher Vss than 1h and 2k: 2-3 times
[7]
  IC50: 76 to 116 nM

## COc1cc(C(=O)c2csc(-c3ccc(CN)cc3)n2)cc(OC)c1OC.Cl [2r, (2-(4-(Aminomethyl)phenyl)thiazol-4-yl)(3,4,5-trimethoxyphenyl)methanone hydrochloride]
NCI/ADR-RES cells; Table 5A, P-gp over-expressed, read-out: IC50 NCI/ADR-RES
  IC50: 11 ± 2 nM
[8]
  increase of solubility: over 35 fold
[7]
  IC50: 13 to 80 nM

## COc1cc(C(=O)c2csc(-c3ccc(O)cc3)n2)cc(OC)c1OC [2l, (2-(4-Hydroxyphenyl)thiazol-4-yl)(3,4,5-trimethoxyphenyl)methanone]
PC-3 xenografts
  % T/C: 34%
PC-3 cells [9]
  concentration inducing apoptosis: greater than or equal to 200 nM
Bovine brain tubulin; 10 μM (Example 22)
  inhibition of tubulin polymerization: 55%

## COc1cc(C(=O)c2cn(S(=O)(=O)c3ccccc3)c(-c3cn(S(=O)(=O)c4ccccc4)c4ccccc34)n2)cc(OC)c1OC [17yaa, (1-(phenylsulfonyl)-2-(1-(phenylsulfonyl)-1H-indol-3-yl)-1H-imidazol-4-yl)(3,4,5-trimethoxyphenyl)methanone]
PC-3 cells [10]
  IC50: 5.2 ± 0.2 nM
PPC-1 cells
  IC50: 21 ± 0.1 nM
PC-3/TxR cells [11]
  Resistance factor PC-3/TxR vs PC-3: 0.4
PC-3/TxR cells [12]
  IC50: 2.1 ± 0.1 nM
B16-F1 melanoma cells; Table 6A, read-out: IC50 B16-F1
  IC50: 538 nM

## COc1cc(C(=O)c2csc(-c3ccccc3)n2)cc(OC)c1OC [1h, (2-Phenyl-thiazol-4-yl)-(3,4,5-trimethoxy-phenyl)-methanone]
[1]
  competition with colchicine-tubulin binding: specifically competed with colchicine binding to tubulin
[13]; Table 16B, Phase I + II (UDP-glucuronic acid present)
  Half-life in HLM (Phase I + II): 17 min
[13]
  Half life in Human liver microsome: 17 min
[2]
  time on the rotating rod vs vehicle group: no significant difference
Bovine brain tubulin; 10 μM (Example 22)
  inhibition of tubulin polymerization: 90%
Bovine brain tubulin; 10 μM, after 20 min, vs vehicle
  inhibition of tubulin polymerization: 47%

## COc1cc(-c2nccc3ccc(-c4ccc5[nH]ccc5c4)cc23)cc(OC)c1OC [6a]
[13]
  Half life in Human liver microsome: 32 min
[14]
  Half life in Dog liver microsome: 13 min
[15]
  Half life in Rat liver microsome: 12 min
[16]
  Half life in Mouse liver microsome: 3.43 min
[17]
  Half life in Monkey liver microsome: 16 min

## c1cc2ccc(-c3ccc4[nH]ccc4c3)cc2c(-c2ccc3[nH]ccc3c2)n1 [6b, 1,7-Bis-(1H-indol-5-yl)-isoquinoline]
[13]
  Half life in Human liver microsome: 40 min
[14]
  Half life in Dog liver microsome: 30 min
[15]
  Half life in Rat liver microsome: 9 min
[16]
  Half life in Mouse liver microsome: 10 min
[17]
  Half life in Monkey liver microsome: 13 min

## O=C(c1ccc(F)cc1)c1c[nH]c(-c2ccc(O)cc2)n1 [12kb]
PC-3 cells [10]; read-out: IC50 ± SEM PC-3, Table 12, 96 h
  IC50: > 10000 nM
PPC-1 cells; read-out: IC50 ± SEM PPC-1, Table 12, 96 h
  IC50: > 10000 nM
A375 melanoma cells
  IC50: 10000 nM
DU 145 cells
  IC50: > 10000 nM
LNCaP cells
  IC50: > 10000 nM
B16-F1 melanoma cells; [18]
  IC50: > 10000 nM
WM-164 melanoma cells
  IC50: > 10000 nM

## COc1cc(C(=O)c2c[nH]c(-c3ccc(Cl)cc3)n2)cc(OC)c1OC [12fa, (2-(4-chlorophenyl)-1H-imidazol-4-yl)(3,4,5-trimethoxyphenyl)methanone]
NCI/ADR-RES cells; Table 12, read-out: IC50 ± SEM NCl/ADR-RES
  IC50: 19 nM
[13]; Table 16B, Phase I
  Half-life in HLM (Phase I): 44 min
